According to patent US8669250B2, “Derivatives of aryl-{4-halogeno-4-[aminomethyl]-piperidin-1-yl}-methanone, their method of preparation and their use as medicinal products” (Pierre Fabre Medicament, priority 2009, dated 2014):
Where a name gives a salt, the structure may show the parent alone.

Columns and labels:
[1] = molecular target: T1, 5-HT1A receptor (Rattus norvegicus, UniProt P19327); assay: Affinity for 5-HT1A receptors, shift of (3H)8-OH-DPAT in rat cerebral cortex; format: binding; conditions: mean of at least 3 experiments, read-out: 5-HT1A affinity (pKi) (converted)
T1 construct: the cerebral cortex is sampled and homogenized in 20 volumes of buffer; from tissue; host or cells: rat cerebral cortex homogenate (membranes)
T1 sequence (P19327 1-422): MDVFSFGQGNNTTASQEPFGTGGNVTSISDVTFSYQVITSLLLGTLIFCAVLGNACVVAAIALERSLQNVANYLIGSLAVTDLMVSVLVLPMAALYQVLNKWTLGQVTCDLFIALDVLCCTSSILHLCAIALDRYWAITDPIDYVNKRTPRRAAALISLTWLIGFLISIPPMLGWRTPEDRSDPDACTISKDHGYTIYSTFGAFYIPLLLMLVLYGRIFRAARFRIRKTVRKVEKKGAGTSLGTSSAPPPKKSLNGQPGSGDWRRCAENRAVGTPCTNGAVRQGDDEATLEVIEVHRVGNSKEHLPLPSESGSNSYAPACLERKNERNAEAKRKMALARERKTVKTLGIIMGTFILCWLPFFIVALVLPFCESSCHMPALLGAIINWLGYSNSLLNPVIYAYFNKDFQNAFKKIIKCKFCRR
Protocol: (§1) The affinity of the compounds of the invention for the rat 5-HT1A receptor was measured conventionally from competitive experiments with a radiolabelled 5-HT1A agonist. […] This test is widely used since it is predictive of antidepressant action in man. Analgesic activity was determined after intra-peritoneal administration to rats, both with a physiological pain model and a pathological pain model. By physiological pain, the inventors designate pain whose origin is a lesion and/or organic ill-function such as pain caused by excessive nociceptive stimuli.
The in vitro affinity of the compounds of the invention for the 5-HT1A receptors was determined by measuring the shift of (^3H)8-OH-DPAT (agonist of 5HT1A receptors labelled with tritium, TRK 850; 160-240 Ci/mmole).
The study on binding with the 5-HT1A receptor was conducted as described in Naunyn-Schmiedeberg's Arch. Pharmaco. 1991, 343, 106. For these experiments, rat cerebral cortices were used. After unfreezing the brain in Tris-HCl buffer 50 mmol, pH=7.40 at 25° C., the cerebral cortex is sampled and homogenized in 20 volumes of buffer held at 4° C. The homogenate is centrifuged at 39000 g for 10 min, the centrifuge residue is suspended in the same volume of buffer and again centrifuged. After further suspension under the same conditions, the homogenate is incubated for 10 min at 37° C. then again centrifuged. The final residue is suspended in cold reaction buffer Tris-HCl 50 mmol, pH=7.40 at 25° C. containing […] of pargyline, 4 mmol of CaCl2 and 0.10% ascorbic acid. The final concentration of the tissue in the incubation medium is 10 mg/tube.
The reaction tubes contain 0.10 mL of (^3H)8-OH-DPAT (final […]), 0.10 mL of product to be tested 6-7 concentrations and 0.80 mL of tissue. Non-specific binding is defined using […] of 5-HT. The reaction tubes are incubated at 23° C. for 30 min then their content is rapidly vacuum filtered through Whatman GF/B filters, the tubes are rinsed with 2×5 mL of Tris-HCl buffer 50 mmol, pH=7.4 at 25° C. Radioactivity is collected on the filter and analyzed by liquid scintillation by adding 4 mL of scintillating liquid (Emulsifier Safe, Packard). All experiments were performed in triplicate.
The inhibition constants (Ki) of the products of the invention are estimated from shift experiments using the non-linear regression programme RADLIG version 4 by EBDA (Equilibrium Binding Data Analysis Biosoft, Cambridge, UK, Mc Pherson, 1985). The dissociation constant of the radioactive ligand used for calculations is […] for (^3H)8-OH-DPAT. The values of pKi (−log Ki) are given in the form mean±SEM of at least 3 experiments.

[2] = system: rats, forced swimming immobility; assay: Forced swimming test (antidepressant activity); format: in vivo; conditions: rat, oral, even at a dose of 40 mg/Kg
Protocol: as §1
The rats (Male Sprague Dawley rats (ICO: OFA SD [IOPS], Iffa Credo, France), are placed in a cylinder (45 cm high and 20 cm in diameter) filled with water at 25° C.±0.5 up to a height of 17 cm. This depth allows rats to swim or float without their tail touching the bottom of the cylinder.
24 h before the test day, the rats are placed in the cylinder for 15 min, a lapse of time after which they no longer attempt to escape and remain immobile. On the test day the animals are replaced in the cylinder and the duration of animal immobility is measured by direct observation followed by verification of an audiovisual recording for 5 min. The products of the invention are administered by oral route 60 min before the test. A rat is considered to be immobile if it allows itself to float and only makes small movements to remain on the surface. Two rats are observed at the same time.
(§2) Quantification of the effect of the compounds of the invention on the forced swimming tests and on the formol test is conducted by one-factor variance analysis between groups (ANOVA analysis) followed by a multiple comparison test (Dunnett's test) versus control animals. The ED50 value is calculated using Litchfield and Wilcoxon analysis from the percentage of responding animals.

[3] = system: rats, formol-induced pain; assay: Formol test (analgesic activity, physiological pain); format: in vivo; conditions: rat, i.p.
Text: (§3) The physiological pain model chosen by the inventors to determine the analgesic activity of the compounds of the invention uses excess nociceptive stimuli (injection of formol) to cause a painful sensation in animal (Eur. J. Pharmacol. 2001, 421, 109). For the so-called pathological pain model in animal, the inventors chose to use pain induced by the injection of a cytotoxic agent such as oxaliplatine (Eur. J. Cancer 2007, 2658).
The rats (Male Sprague Dawley rats (ICO: OFA SD [IOPS], Iffa Credo, France) are placed in plexiglass observation boxes above an angled mirror so as to facilitate observation of the hind paws. After thirty minutes of habituation, the animals are given an injection of formol diluted to 2.5% on the plantar surface of the right hind paw. The injection of formol produces behavioural responses which occur in two phases:
an acute phase, from 0 to 5 min after injection of the formol, corresponding to stimulation of receptors specialized in the transmission of pain messages to the spinal cord.
a late phase which occurs 20 to 30 min after the injection. This phase corresponds to stimulation of receptors by inflammatory mediators and/or to hyper-excitability of the dorsal horn induced during the first phase. This late phase therefore involves central sensitization.
For the study of the compounds of the invention we selected two expressions of painful behaviour and chose two periods of observation which correspond to the two pain phases (i.e. 0-5 min and 22.5-27.5 min). During these two 5-min periods the animals are observed every 30 seconds and are given scores for the following behaviours: paw licking or not of the injected paw, and lifting or non-lifting of the injected paw. Ten observations give a maximum score of 10 for each parameter for each of the 2 phases. The products of the invention are administered via intraperitoneal route 15 min before the injection of formol.
as §2
For this test, the animals are observed every 30 seconds during two periods of 5 min. The following behaviours are noted: paw licking or not of the injected paw, and paw lifting or not of the injected paw. Ten observations give a maximum score of 10 for each parameter for each of the 2 phases, measuring either paw lifting or paw licking. This test was also performed by comparison with administration of the vehicle (veh) alone.

[4] = system: rats, oxaliplatine-induced allodynia; assay: Oxaliplatine test, von Frey (analgesic activity, pathological pain); format: in vivo; conditions: rat, i.p., even at a dose of 2.5 mg/kg
Text: as §3
The rats (Male Sprague Dawley rats (ICO: OFA SD [IOPS], Iffa Credo, France) are tested a first time on the Friday to determine their mechanical sensitivity threshold (von Frey test). They are then given an intra-peritoneal injection (i.p.) of oxaliplatine (anticancer treatment causing neuropathic pain in patients) at a dose of 8 mg/kg. This dose in rat induces neuropathy which translates as mechanical hypersensitivity (allodynia) which develops 3 days after the injection with a peak on day five. For the study of the compounds of the invention, the animals are re-tested on day five, 15 min after administration of the compound via intra-peritoneal route.
The pressure force is then measured (in g) at which withdrawal of the paw of the animals is observed.

Compound	melting point [°C]	Ki [1] [nM]	further results
CN1CC(CNCC2(F)CCN(C(=O)c3ccc(F)c(Cl)c3)CC2)Oc2ccccc21 (stereo not drawn) (as salt: fumarate) [Compound 1g, (3-Chloro-4-fluoro-phenyl)-{4-fluoro-4-[(3,4-dihydro-2H-4-methyl-1,4-benzoxazine-2-methanamino)-methyl]-piperidin-1-yl}-methanone]	125		
O=C(c1ccc(F)c(Cl)c1)N1CCC(F)(CNCC2CNc3ccccc3O2)CC1 (stereo not drawn) (as salt: hydrochloride) [Compound 1a3, (3-Chloro-4-fluoro-phenyl)-{4-fluoro-4-[(3,4-dihydro-2H-1,4-benzoxazine-2-methanamino)-methyl]-piperidin-1-yl}-methanone]	175		
O=C1CC2(CCCC2)CC(=O)N1CCCCN1CCN(c2ncccn2)CC1 [buspirone, reference compound]			effect on animal immobility [2]: no effect on animal immobility; dose on and after which paw lifting is affected ([3]; acute phase and late phase): ≥ 2.5 mg/kg; dose on and after which paw licking is inhibited ([3]; late phase): ≥ 2.5 mg/kg; analgesia, in words [4]: does not produce any significant analgesia
O=C(c1ccc(F)c(Cl)c1)N1CCC(F)(CNCC2CNc3cccc(F)c3O2)CC1 (stereo not drawn) [Compound 1b, (3-Chloro-4-fluoro-phenyl)-{4-fluoro-4-[(3,4-dihydro-2H-8-fluoro-1,4-benzoxazine-2-methanamino)-methyl]-piperidin-1-yl}-methanone]		0.631	
COc1cccc2c1OC(CNCC1(F)CCN(C(=O)c3ccc(F)c(Cl)c3)CC1)CN2 (stereo not drawn) [Compound 1e, (3-Chloro-4-fluoro-phenyl)-{4-fluoro-4-[(3,4-dihydro-2H-8-methoxy-1,4-benzoxazine-2-methanamino)-methyl]-piperidin-1-yl}-methanone]		1.51	
O=C(c1ccc(F)c(Cl)c1)N1CCC(F)(CNCC2CNc3cccc(F)c3O2)CC1 (stereo not drawn) (as salt: fumarate) [Compound 1b, (3-Chloro-4-fluoro-phenyl)-{4-fluoro-4-[(3,4-dihydro-2H-8-fluoro-1,4-benzoxazine-2-methanamino)-methyl]-piperidin-1-yl}-methanone]	100		
O=C(c1ccc(F)c(Cl)c1)N1CCC(F)(CNCC2CNc3cccc(Cl)c3O2)CC1 (stereo not drawn) [Compound 1d, (3-Chloro-4-fluoro-phenyl)-{4-fluoro-4-[(3,4-dihydro-2H-8-chloro-1,4-benzoxazine-2-methanamino)-methyl]-piperidin-1-yl}-methanone]		2.29	
CN1CC(CNCC2(F)CCN(C(=O)c3ccc(F)c(Cl)c3)CC2)Oc2ccccc21 (stereo not drawn) [Compound 1g, (3-Chloro-4-fluoro-phenyl)-{4-fluoro-4-[(3,4-dihydro-2H-4-methyl-1,4-benzoxazine-2-methanamino)-methyl]-piperidin-1-yl}-methanone]		0.794	

Now from value to molecule, other results behind:

melting point [°C]	Ki [1] [nM]	Compound	further results
185		O=C(c1ccc(F)c(Cl)c1)N1CCC(F)(CNCC2CNc3ccccc3O2)CC1 (single isomer, unassigned; (-)) (as salt: fumarate) [Compound 1a1, (−)-(3-Chloro-4-fluoro-phenyl)-{4-fluoro-4-[(3,4-dihydro-2H-1,4-benzoxazine-2-methanamino)-methyl]-pipéridin-1-yl}-methanone]	
	0.741	NC(=O)c1cccc2c1OC(CNCC1(F)CCN(C(=O)c3ccc(F)c(Cl)c3)CC1)CN2 (stereo not drawn) [Compound 1h, (3-Chloro-4-fluoro-phenyl)-{4-fluoro-4-[(3,4-dihydro-2H-8-carbamoyl-1,4-benzoxazine-2-methanamino)-methyl]-piperidin-1-yl}-methanone]	
	0.646	N#Cc1cccc2c1OC(CNCC1(F)CCN(C(=O)c3ccc(F)c(Cl)c3)CC1)CN2 (stereo not drawn) [Compound 1f, (3-Chloro-4-fluoro-phenyl)-{4-fluoro-4-[(3,4-dihydro-2H-8-cyano-1,4-benzoxazine-2-methanamino)-methyl]-piperidin-1-yl}-methanone]	
	1.23	Cc1cccc2c1OC(CNCC1(F)CCN(C(=O)c3ccc(F)c(Cl)c3)CC1)CN2 (stereo not drawn) [Compound 1c, (3-Chloro-4-fluoro-phenyl)-{4-fluoro-4-[(3,4-dihydro-2H-8-methyl-1,4-benzoxazine-2-methanamino)-methyl]-piperidin-1-yl}-methanone]	
